Experimental data taken from ChEMBL document CHEMBL1201862, “PubChem BioAssay data set” (2004).
Blank lines part the entries; values can stand above or below the molecule they belong to. The source made the active and inactive calls.

What was measured:
[1] = target: Tumor necrosis factor (Homo sapiens, UniProt P01375); test: TNFa-triggered NF-kB activation inhibitors, SAR follow-up, cell-based, revised (AID 2337); type: functional
[2] = tested on: HEK293; test: NOD1 signaling inhibitors, primary screen, cell-based, luminescence, uHTS (AID 1578); type: functional; conditions: Homo sapiens
[3] = tested on: HEK293; test: NOD2 signaling inhibitors in MDP-stimulated cells, cell-based, uHTS, luminescence (AID 2001); type: functional; conditions: Homo sapiens
[4] = tested on: HEK293; test: cells; conditions: Homo sapiens
[5] = tested on: HEK293; test: cells; type: functional, cell-based; conditions: Homo sapiens
[6] = target: T1, Nucleotide-binding oligomerization domain-containing protein 2 (Homo sapiens, UniProt Q9HC29); test: NOD2 signaling inhibitors, cell-based, luminescence, uHTS, HEK293 (AID 1566); type: functional
[7] = tested on: HEK293; test: cells; type: functional, cell-based; conditions: Homo sapiens; remark: listed apart in the source
[8] = target: T2, Nucleotide-binding oligomerization domain-containing protein 1 (Homo sapiens, UniProt Q9Y239); test: NOD1 signaling inhibitors, SAR follow-up, revised (AID 2333); type: functional
T2 sequence (Q9Y239 whole entry): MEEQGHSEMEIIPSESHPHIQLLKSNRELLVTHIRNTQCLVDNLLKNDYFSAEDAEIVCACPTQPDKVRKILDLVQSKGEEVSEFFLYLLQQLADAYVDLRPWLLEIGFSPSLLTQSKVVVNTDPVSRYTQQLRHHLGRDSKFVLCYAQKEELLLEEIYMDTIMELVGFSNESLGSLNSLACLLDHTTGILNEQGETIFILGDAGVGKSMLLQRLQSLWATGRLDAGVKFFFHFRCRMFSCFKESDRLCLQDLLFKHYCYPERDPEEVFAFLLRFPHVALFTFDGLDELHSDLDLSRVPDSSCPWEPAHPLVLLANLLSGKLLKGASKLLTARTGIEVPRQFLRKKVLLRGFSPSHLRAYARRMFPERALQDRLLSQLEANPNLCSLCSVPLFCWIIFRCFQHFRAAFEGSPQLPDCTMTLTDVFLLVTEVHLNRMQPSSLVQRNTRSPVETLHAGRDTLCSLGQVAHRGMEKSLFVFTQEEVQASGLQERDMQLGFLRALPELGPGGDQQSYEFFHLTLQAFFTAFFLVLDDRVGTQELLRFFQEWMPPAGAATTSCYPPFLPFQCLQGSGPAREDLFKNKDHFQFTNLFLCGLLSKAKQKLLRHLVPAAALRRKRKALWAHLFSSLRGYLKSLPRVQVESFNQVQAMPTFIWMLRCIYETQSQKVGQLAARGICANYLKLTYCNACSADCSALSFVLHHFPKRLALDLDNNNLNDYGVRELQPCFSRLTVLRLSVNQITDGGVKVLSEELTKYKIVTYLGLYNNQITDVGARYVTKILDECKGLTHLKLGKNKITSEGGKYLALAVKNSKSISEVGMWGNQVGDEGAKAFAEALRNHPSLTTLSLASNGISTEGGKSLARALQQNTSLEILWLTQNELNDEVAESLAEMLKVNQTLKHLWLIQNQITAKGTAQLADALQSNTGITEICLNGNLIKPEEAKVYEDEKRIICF

[9] = tested on: HEK293; test: cells; type: functional, cell-based; conditions: Homo sapiens; remark: listed apart in the source
[10] = target: T1, Nucleotide-binding oligomerization domain-containing protein 2; test: PubChem AID 2334; type: functional
[11] = target: Cytochrome P450 2D6 (Homo sapiens, UniProt P10635);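 also: CYP2D6 member of a cytochrome P450 panel assay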
[12] = target: Cytochrome P450 2C9 (Homo sapiens, UniProt P11712)
[13] = target: CAAX prenyl protease 1 (Saccharomyces cerevisiae S288c, UniProt P47154); test: Ste24 protease inhibitors, dose response, biochemical, S. cerevisiae, plate reader, cherry-pick (AID 488815)
[14] = target: CAAX prenyl protease 2 (Saccharomyces cerevisiae S288c, UniProt Q03530); type: biochemical
CAAX prenyl protease 2, sequence (Q03530 whole entry): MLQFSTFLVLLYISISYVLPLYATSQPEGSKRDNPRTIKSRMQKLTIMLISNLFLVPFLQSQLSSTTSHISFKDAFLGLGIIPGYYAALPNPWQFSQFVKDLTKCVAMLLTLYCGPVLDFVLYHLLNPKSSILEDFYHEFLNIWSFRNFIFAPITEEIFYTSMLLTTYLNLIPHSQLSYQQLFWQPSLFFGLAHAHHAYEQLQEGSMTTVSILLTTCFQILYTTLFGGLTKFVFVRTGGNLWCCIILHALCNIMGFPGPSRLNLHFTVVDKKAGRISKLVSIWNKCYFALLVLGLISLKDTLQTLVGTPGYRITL

T1 sequence (Q9HC29 whole entry, the tested form may be a part): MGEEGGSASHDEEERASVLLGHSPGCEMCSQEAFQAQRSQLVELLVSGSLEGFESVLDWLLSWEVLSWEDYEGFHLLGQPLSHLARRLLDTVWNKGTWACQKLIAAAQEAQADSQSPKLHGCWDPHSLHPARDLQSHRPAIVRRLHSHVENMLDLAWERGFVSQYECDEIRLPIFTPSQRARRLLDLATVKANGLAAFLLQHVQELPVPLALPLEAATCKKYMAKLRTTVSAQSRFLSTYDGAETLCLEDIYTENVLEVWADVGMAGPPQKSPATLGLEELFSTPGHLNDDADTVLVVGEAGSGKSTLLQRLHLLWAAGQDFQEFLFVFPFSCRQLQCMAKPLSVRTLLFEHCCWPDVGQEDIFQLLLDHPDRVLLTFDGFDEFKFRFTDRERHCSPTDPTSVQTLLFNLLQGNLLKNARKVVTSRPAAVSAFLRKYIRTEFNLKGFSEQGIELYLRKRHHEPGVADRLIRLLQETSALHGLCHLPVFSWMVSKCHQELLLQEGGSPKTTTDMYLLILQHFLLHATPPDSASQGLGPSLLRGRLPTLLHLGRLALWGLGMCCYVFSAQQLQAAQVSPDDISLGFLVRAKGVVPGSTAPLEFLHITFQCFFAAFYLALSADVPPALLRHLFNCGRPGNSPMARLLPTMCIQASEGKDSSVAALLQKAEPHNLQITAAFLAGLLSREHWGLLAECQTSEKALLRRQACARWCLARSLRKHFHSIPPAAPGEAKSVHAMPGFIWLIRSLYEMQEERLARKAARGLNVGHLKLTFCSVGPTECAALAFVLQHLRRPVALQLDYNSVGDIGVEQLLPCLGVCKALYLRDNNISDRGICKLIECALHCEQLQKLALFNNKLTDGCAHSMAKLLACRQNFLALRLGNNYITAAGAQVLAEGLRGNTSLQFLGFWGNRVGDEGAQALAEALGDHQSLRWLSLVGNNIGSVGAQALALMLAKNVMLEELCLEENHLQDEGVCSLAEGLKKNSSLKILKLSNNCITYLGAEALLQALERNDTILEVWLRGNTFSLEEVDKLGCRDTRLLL
Cytochrome P450 2C9, sequence (P11712 whole entry): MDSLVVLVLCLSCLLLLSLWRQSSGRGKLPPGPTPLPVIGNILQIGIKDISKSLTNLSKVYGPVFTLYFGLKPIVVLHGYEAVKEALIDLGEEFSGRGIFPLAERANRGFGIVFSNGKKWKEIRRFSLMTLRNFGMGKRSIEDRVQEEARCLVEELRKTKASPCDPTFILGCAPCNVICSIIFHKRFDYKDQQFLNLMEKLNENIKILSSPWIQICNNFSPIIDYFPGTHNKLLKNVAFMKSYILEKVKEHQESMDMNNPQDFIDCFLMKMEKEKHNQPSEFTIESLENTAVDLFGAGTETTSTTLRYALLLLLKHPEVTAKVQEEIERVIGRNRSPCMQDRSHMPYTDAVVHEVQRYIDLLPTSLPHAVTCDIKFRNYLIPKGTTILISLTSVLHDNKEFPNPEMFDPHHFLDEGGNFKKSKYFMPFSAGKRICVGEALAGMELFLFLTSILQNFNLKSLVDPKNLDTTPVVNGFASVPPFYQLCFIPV
Cytochrome P450 2D6, sequence (P10635 whole entry): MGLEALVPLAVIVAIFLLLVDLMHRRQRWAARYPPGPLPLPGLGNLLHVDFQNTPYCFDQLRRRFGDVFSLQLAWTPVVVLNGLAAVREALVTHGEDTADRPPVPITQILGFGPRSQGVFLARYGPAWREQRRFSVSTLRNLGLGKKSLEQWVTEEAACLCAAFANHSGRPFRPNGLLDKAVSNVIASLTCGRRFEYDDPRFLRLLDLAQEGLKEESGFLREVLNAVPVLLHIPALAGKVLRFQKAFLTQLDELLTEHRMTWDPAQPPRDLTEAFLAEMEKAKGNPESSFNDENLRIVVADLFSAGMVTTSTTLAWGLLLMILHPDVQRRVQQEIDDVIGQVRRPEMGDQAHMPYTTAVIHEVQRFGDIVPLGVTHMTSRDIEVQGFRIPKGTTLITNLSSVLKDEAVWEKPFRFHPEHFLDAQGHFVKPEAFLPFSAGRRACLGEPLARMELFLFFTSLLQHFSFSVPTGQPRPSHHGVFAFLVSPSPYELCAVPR
CAAX prenyl protease 1, sequence (P47154 whole entry): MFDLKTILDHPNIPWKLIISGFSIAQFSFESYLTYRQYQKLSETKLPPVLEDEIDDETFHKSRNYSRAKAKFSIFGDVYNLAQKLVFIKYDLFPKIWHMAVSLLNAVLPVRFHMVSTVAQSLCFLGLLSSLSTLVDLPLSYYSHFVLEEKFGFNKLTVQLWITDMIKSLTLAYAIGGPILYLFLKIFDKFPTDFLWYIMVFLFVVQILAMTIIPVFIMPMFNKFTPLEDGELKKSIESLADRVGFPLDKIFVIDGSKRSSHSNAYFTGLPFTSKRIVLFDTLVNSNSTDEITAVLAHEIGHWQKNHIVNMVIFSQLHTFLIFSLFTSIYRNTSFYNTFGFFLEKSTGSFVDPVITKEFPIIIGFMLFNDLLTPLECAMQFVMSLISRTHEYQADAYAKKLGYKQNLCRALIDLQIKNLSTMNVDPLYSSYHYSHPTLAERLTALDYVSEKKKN
Tumor necrosis factor, sequence (P01375 whole entry): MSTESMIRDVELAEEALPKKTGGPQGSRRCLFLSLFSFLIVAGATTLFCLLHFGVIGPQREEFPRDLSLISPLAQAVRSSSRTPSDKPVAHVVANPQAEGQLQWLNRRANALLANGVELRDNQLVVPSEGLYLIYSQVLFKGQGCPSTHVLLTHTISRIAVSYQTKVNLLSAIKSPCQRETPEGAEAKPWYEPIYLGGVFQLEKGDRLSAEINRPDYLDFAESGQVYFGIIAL

Compound: COc1ccc(NC(C)=O)cc1S(=O)(=O)Nc1ccc(OCc2ccccc2)cc1
IC50 [1]: 18 µM (active) | EC50 [2]: 13.7 µM (active) | IC50 [3]: > 20 µM (inactive) | IC50 [4]: > 20 µM (inactive) | IC50 [5]: > 20 µM (inactive) | EC50 [6]: 12.3 µM (active) | IC50 [7]: > 20 µM (inactive) | IC50 [8]: 12.7 µM (active) | IC50 [9]: > 20 µM (inactive) | IC50 [10]: 16.6 µM (active)

AC50 [11]: inconclusive | AC50 [12]: 7.94 µM (inconclusive)
Compound: O=[N+]([O-])c1ccc(N2CCOCC2)nc1

AC50 [13]: 26.5 µM (active) | AC50 [14]: > 100 µM (inactive)
Compound: Cc1ccc2c(C)c(C(=O)N(Cc3ccc(F)cc3)C3CCS(=O)(=O)C3)oc2c1 (centres undefined)
